In publication PMC2914114 (Molecular pharmaceutics, 2010):

What was measured:
[1] = calculated from Stokes-Einstein equation for equivalent spheres; cited from earlier work
Permeability = conditions: human, pH 7.4

Compound | Molecular Radius [1] [Å] | Papp at 2 h, 0.25 µCi/mL (Permeability) [×10⁻⁶ cm/s] | PM (permeability across the monolayer itself) (hCMEC/D3 cells; pH 7.4) | A-B versus B-A relative permeability (PM) (hCMEC/D3 cells)
OC[C@@H](O)[C@@H](O)[C@H](O)[C@H](O)CO [[^14C] Mannitol, Mannitol] | 4.10 | 24.7 ± 0.2 |  | 
NC(N)=O [[^14C] Urea, Urea] | 2.67 |  | 5.65 ± 0.08 × 10^−5 cm/sec | 
CC(C)[C@H](N)C(=O)OCCOCn1cnc2c(=O)[nH]c(N)nc21 [valacyclovir] |  |  |  | no differences between the A-B and B-A relative permeabilities
